“Also recorded” adds a separate entry of the source.
Test system: serum antibodies generated against the Helicobacter pylori serotype O:6 purified polysaccharide
Assay: Oligosaccharide chip: binding of antiserum antibodies to spotted synthetic oligosaccharides
Design: species or system rabbit
Conditions: spotting concentration 1 mM; for fluorescence intensity on oligosaccharide chip: FIG. 6A/6B, serum diluted 1:50; for recognition and binding by antibodies in the antiserum: oligosaccharide fixed on chip via amino linker, antiserum against H. pylori serotype O6 LPS, anti-rabbit IgG FITC-labeled secondary antibody
Method: FIG. 6A: Detection of the antibody binding activity of the synthetic oligosaccharides in the oligosaccharide chip using an anti-rabbit IgG FITC-labeled secondary antibody. The chip spotting mode is shown as follows: • 1: trisaccharide 1, spotting concentration is 1 mM; • 2: tetrasaccharide 2, spotting concentration is 1 mM; • 3: heptoglycan-chain-containing pentasaccharide 3, spotting concentration is 1 mM; • 4: heptoglycan-chain-containing pentasaccharide 4, spotting concentration is 1 mM; • 5: […] containing only Lewis O-antigen, spotting concentration is 1 mM; • 6: heptoglycan-chain-containing octasaccharide 6, spotting concentration is 1 mM; • 7: tridecasaccharide 7 containing Lewis O-antigen, spotting concentration is 1 mM; and • 8: Helicobacter pylori serotype O6 lipopolysaccharide, spotting concentration is 1 mg/mL.
FIG. 6B: quantitative measurements of average fluorescence intensity of spots 1-7 in FIG. 6A. Error bars are standard deviations of 4 different points from two different detection areas.
A chemically synthesized oligosaccharide antigen was fixed onto the chip surface through an amino linker, and the antiserum was incubated with the oligosaccharide chip and then incubated with the secondary antibody.
Under a chip scanner, the fluorescence of the binding of the oligosaccharide fragment and the antibody can be obtained. In this way, the binding strength of the oligosaccharide fragment to the antibody in the serum can be quantified, the amount of the chemically synthesized oligosaccharide and antiserum can be saved, and the result can be reflected clearly.
The experimental procedure is as follows: • (1) Activated amino slides were spotted with a biochip spotter. After the completion of the spotting, incubation was carried out overnight at a temperature of 26° C. and a humidity of 55%. • (2) Then the slides were immersed in a solution B (50 nM Na2HPO4, 100 nM ethanolamine in water) at 50° C. for 1 hour. The slides were washed with ultrapure water 3 times, and the residual water was removed by centrifugation. • (3) 3% BSA (w/v) in PBS was used for blocking at 4° C. overnight. The slides were washed with PBST (PBS containing 0.1% tween) once, washed with PBS twice, and centrifugally dried. • (4) The slides were placed into a 16-well incubator (ProPlate). 120 μL of mouse serum sample diluted 1:50 in 1% BSA (w/v) in PBS was added to each well, and incubated in a 37° C. wet box in the dark for 1 hour. The sample was removed, and the incubator was washed with 150 μL of PBST 3 times. • (5) A secondary antibody diluted 1:400 in 1% BSA (w/v) in PBS was added, and incubated in a wet box at 37° C. in the dark for 45 minutes. The secondary antibody solution was removed, and the incubator was washed with 150 μL of PBST 3 times. The 16-well incubator was removed, washed with ultrapure water, and washed with ultrapure water for 15 minutes. The residual water was removed by centrifugation. Scanning was carried out using the chip scanner. Immunogenicity Detection of Helicobacter pylori Serotype O:6 Synthetic Oligosaccharide Fragment:
NHS slides (SurModics, DN01-0025) were spotted with synthetic oligosaccharide compounds 1 to 7 using a biochip spotter (Jiangsu RayMe Biotechnology Co., Ltd.). After the completion of the spotting, incubation was carried out overnight at a temperature of 26° C. and a humidity of 55%. Then the slides were immersed in a solution B (50 nM Na2HPO4, 100 nM ethanolamine in water) at 50° C. for 1 hour. The slides were washed with ultrapure water 3 times, and the residual water was removed by centrifugation. 3% BSA (w/v) in PBS was used for blocking at 4° C. overnight. The slides were washed with PBST (PBS containing 0.1% tween) once, washed with PBS twice, and centrifugally dried. The slides were placed into a 16-well incubator (ProPlate). 120 μL of mouse serum sample diluted 1:50 in 1% BSA (w/v) in PBS was added to each well, and incubated in a 37° C. wet box in the dark for 1 hour. […]

NCCCO[C@H]1OC([C@H](O)CO)[C@@H](O)[C@H](O)C1O[C@H]1OC([C@H](O)CO)[C@@H](O)[C@H](O)C1O[C@H]1OC([C@@H](CO)O[C@H]2OC([C@H](O)CO)[C@@H](O)[C@H](O[C@H]3OC([C@H](O)CO)[C@@H](O)C(O)C3O)C2O)[C@@H](O)[C@H](O)C1O (stereo partly drawn) [Compound 3]
fluorescence intensity on oligosaccharide chip: higher fluorescence intensity
recognition and binding by antibodies in the antiserum: well recognized; also recorded: obvious and strong recognition and binding

NCCCO[C@H]1OC([C@H](O)CO)[C@@H](O)[C@H](O)C1O[C@H]1OC([C@H](O)CO)[C@@H](O)[C@H](O)C1O[C@H]1OC([C@@H](CO)O[C@H]2OC([C@H](O)CO)[C@@H](O)[C@H](O[C@H]3O[C@@H]([C@H](O)CO)[C@@H](O)C(O[C@H]4OC([C@H](O)CO)[C@@H](O)[C@H](O[C@H]5O[C@@H]([C@H](O)CO)[C@@H](O)C(O[C@H]6OC([C@H](O)CO)[C@@H](O)[C@H](O)C6O)C5O)C4O)C3O)C2O)[C@@H](O)[C@H](O)C1O (stereo partly drawn) [Compound 6]
fluorescence intensity on oligosaccharide chip: higher fluorescence intensity
recognition and binding by antibodies in the antiserum: well recognized; also recorded: obvious and strong recognition and binding

NCCCO[C@H]1OC([C@H](O)CO)[C@@H](O)[C@H](O[C@H]2O[C@@H]([C@H](O)CO)[C@@H](O)C(O[C@H]3OC([C@H](O)CO)[C@@H](O)[C@H](O[C@H]4O[C@@H]([C@H](O)CO)[C@@H](O)C(O[C@H]5OC([C@H](O)CO)[C@@H](O)[C@H](O)C5O)C4O)C3O)C2O)C1O (stereo partly drawn) [Compound 4]
fluorescence intensity on oligosaccharide chip: higher fluorescence intensity
recognition and binding by antibodies in the antiserum: well recognized; also recorded: obvious and strong recognition and binding

Source: US12324832B2, “Application of heptoglycan-chain-containing oligosaccharide compounds in preparation of vaccine against Helicobacter pylori” (Jiangnan University, priority 2020, dated 2025)
